This note sets out measurements from patent US10233198B2, “Pro-drugs of NSAIAs with very high skin and membranes penetration rates and their new medicinal uses” (Techfields Pharma Co., Ltd., priority 2007, dated 2019).

The conditions of data set [1]: in vivo.
Protocol: The in vivo rates of penetration of pro-drugs and their parent drugs through the skin of intact rats were compared. The donor consisted of 20% pro-drugs or their parent drugs in 1 ml of ethanol applied to about 5 cm^2 area on the backs of rats (˜200 g). After 4 hours, the rats were killed, and 5 ml of methanol was added to 1 ml of blood, 1 g of liver, 1 g of kidney, or 1 g of brain (liver, kidney or brain was washed with pH 7.2 buffer for three times) and the mixtures were homogenized. The samples were then centrifuged for 5 min and analyzed using HPLC.
After 4 hours, the rats were killed, and 5 ml of methanol was added to 1 ml of blood, 1 g of liver, 1 g of kidney, or 1 g of brain (liver, kidney or brain was washed with pH 7.2 buffer for three times) and the mixtures were homogenized.
The subject of data set [2] is SLAC/GK rats, type 2 diabetes. The data set is described as follows: Blood lipid levels in type 2 diabetic rats, transdermal. Type of data set: in vivo. The settings on record: for Triglycerides, Baseline: baseline of the treatment group; for Triglycerides, Average: end of fifth week, transdermal, equal to 20 mg/kg of NSAIAs once per day. The source says:
(§1) The pro-drugs in this invention lower blood glucose levels in rat models (SLAC/GK, type 2 diabetes, n=7). 50% acetone solution of diethylaminoethyl acetylsalicylate.acetylsaficylic acid salt (P-1, in acetone); 4-acetamidophenyl salicylyldimethylaminobutyrate.HCl (P-6), diethylaminoethyl 5-(2,4-difluorophenyl) acetylsalicylate.5-(2,4-difluorophenyl) acetylsalicylic acid salt (P-8), diethylaminoethyl salicylsalicylate.AcOH (P-9), diethylaminoethyl salicylate.AcOH (P-10), diethylaminoethyl 5-acetamido-acetylsalicylate (P-58), diethylaminoethyl acetylsalicylsalicylate. acetylsalicylsalicylic acid salt (P-59), diethylaminoethyl acetylsalicylsalicylate. acetylsalicylsalicylsalicylic acid salt (P-60) (equal to of 20 mg/kg of NSAIAs) were administered transdermally to the backs (about 1.5 cm^2) of rats (fur was shaved) once per day (at 8 am) for 5 weeks. The blood glucose levels were measured once every 3 days at 4 pm (no fasting) from the second week to the fifth week. The blood lipid levels were measured at the end of the fifth week.

Data set [3] deals with SLAC:NOD-IDDM mice, type 1 diabetes. The data set is described as follows: Blood glucose in type 1 diabetic mice, transdermal. Type of data set: in vivo. The settings on record: no fasting; for Blood glucose, type I diabetic mice, Baseline: baseline of the treatment group; for Blood glucose, type I diabetic mice, Average: transdermal, equal to 20 mg/kg of NSAIAs once per day for 7 weeks, fourth to seventh week. From the text:
The pro-drugs in this invention lower blood glucose levels in mouse models (SLAC:NOD-IDDM, type 1 diabetes, n=7). 20% acetone solution of diethylaminoethyl acetylsalicylate.acetylsalicylic acid salt (P-1, in acetone); 4-acetamidophenyl salicylyldimethylaminobutyrate.HCl (P-6), diethylaminoethyl 5-(2,4-difluorophenyl) acetylsalicylate.5-(2,4-difluorophenyl) acetylsalicylic acid salt (P-8), diethylaminoethyl salicylsalicylate.AcOH (P-9), diethylaminoethyl salicylate.AcOH (P-10), diethylaminoethyl 5-acetamido-acetylsalicylate (P-58), diethylaminoethyl acetylsalicylsalicylate. acetylsalicylsalicylic acid salt (P-59), diethylaminoethyl acetylsalicylsalicylate. acetylsalicylsalicylsalicylic acid salt (P-60) (equal to of 20 mg/kg of NSAIAs) were administered transdermally to the backs (about 1 cm^2) of mice (fur was shaved) once per day (at 8 am) for 7 weeks. The blood glucose levels were measured once every 3 days at 3 pm (no fasting) from the fourth week to the seventh week.

Data set [4] deals with SLAC/GK rats, type 2 diabetes. As to the kind of experiment: Blood lipid levels in type 2 diabetic rats, oral with food. Type of data set: in vivo. From the text:
The pH of stomach juice is 1-3. The negative charge on the phosphate head group of membrane is neutralized by the proton and the positive charge on the amino groups of these pro-drugs cannot bond to the phosphate head group of membranes, then the pro-drugs cannot pass through the wall of the stomach and will not hurt or upset the stomach. The pH of the duodenum is about 5-7 and the pro-drugs can pass through the mucosa of duodenum. The pancreas is nearby and large amount of the pro-drugs will enter there before going to the liver, kidneys, and the general circulation where the drug will be metabolized, so only very low dose of these pro-drugs are needed and very few and low side effects will be caused. The 20% acetone solution of diethylaminoethyl acetylsalicylate.acetylsalicylic acid salt (P-1, in acetone); 4-acetamidophenyl salicylyldimethylaminobutyrate.HCl (P-6), diethylaminoethyl 5-(2,4-difluorophenyl) acetylsalicylate.5-(2,4-difluorophenyl) acetylsalicylic acid salt (P-8), diethylaminoethyl salicylsalicylate.AcOH (P-9), diethylaminoethyl salicylate.AcOH (P-10), diethylaminoethyl 5-acetamido-acetylsalicylate (P-58), diethylaminoethyl acetylsalicylsalicylate. acetylsalicylsalicylic acid salt (P-59), diethylaminoethyl acetylsalicylsalicylate. acetylsalicylsalicylsalicylic acid salt (P-60) (equal to of 15 mg/kg of NSAIAs) were mixed with food and were orally administered to the rats (SLAC/GK, type 2 diabetes, n=7) with food every day for 5 weeks. The blood glucose levels were measured once every 3 days at 3 pm (no fasting) from the second week to the fifth week. The blood lipid levels were measured at the end of the fifth week.

Data set [5] relates to SLAC/GK rats, type 2 diabetes. The data set is described as follows: Blood glucose in type 2 diabetic rats, transdermal. Type of data set: in vivo. Particulars: no fasting; for Blood glucose, diabetic rats, Baseline: baseline of the treatment group; for Blood glucose, diabetic rats, Average: transdermal, equal to 20 mg/kg of NSAIAs once per day for 5 weeks, measured every 3 days, second to fifth week.
Source text: as §1

The subject of a further data set is normal rats. As to the kind of experiment: Blood glucose in normal rats, transdermal. Type of data set: in vivo. The settings on record: no fasting; for Blood glucose, normal rats, Baseline: baseline of the treatment group.
The mark [6] stands for this setting: baseline of the treatment group.

For the molecule `CC(=O)Oc1ccccc1C(=O)O` [Aspirin], the “Drug found in rat tissues or plasma after topical application of the parent drug itself” value (“Drug found in rat tissues or plasma” for short) in data set [1] is given as “None of these drugs was found”.
For the molecule `CC(=O)Nc1ccc(OC(=O)c2ccccc2OC(=O)CCCN(C)C)cc1.Cl` [P-6, 4-acetamidophenyl salicylyldimethylaminobutyrate.HCl], the “Triglycerides, Baseline” value in data set [2] is 6.3 ± 0.5 mmol/L. In data set [3], the “Blood glucose, type I diabetic mice, Baseline” value turned out to be 27.7 ± 4 mmol/L and the “Blood glucose, type I diabetic mice, Average” value is on record as 9.5 ± 2 mmol/L. Further, in data set [4] (setting [6]), the “Cholesterol (HDL), Baseline” value worked out at 1.8 ± 0.1 mmol/L and the “Triglycerides, Baseline” value is 5.9 ± 0.5 mmol/L. Further, in data set [5], the “Blood glucose, diabetic rats, Baseline” value is 16.7 ± 4 mmol/L and the “Blood glucose, diabetic rats, Average” value stood at 8.5 ± 2 mmol/L. The “Blood glucose, normal rats, Baseline” value with normal rats was 6.8 ± 1 mmol/L. Further, the “Blood glucose, normal rats, Average” value with normal rats (transdermal, equal to 20 mg/kg of NSAIAs once per day for 5 weeks, second to fifth week) is 6.5 ± 1 mmol/L.
As for `CC(=O)Oc1ccc(-c2ccc(F)cc2F)cc1C(=O)O.CCN(CC)CCOC(=O)c1cc(-c2ccc(F)cc2F)ccc1OC(C)=O` [P-8, diethylaminoethyl 5-(2,4-difluorophenyl) acetylsalicylate.5-(2,4-difluorophenyl) acetylsalicylic acid salt], the “Triglycerides, Average” value in data set [2] is recorded as 2.1 ± 0.2 mmol/L. For the same molecule, in data set [3], the “Blood glucose, type I diabetic mice, Baseline” value was 29.1 ± 5 mmol/L and the “Blood glucose, type I diabetic mice, Average” value is listed as 9.1 ± 1 mmol/L. In data set [4] (setting [6]), the “Cholesterol (total), Baseline” value turned out to be 7.4 ± 0.6 mmol/L and the “Triglycerides, Baseline” value stood at 6.2 ± 0.7 mmol/L. In addition, the “Cholesterol (total), Average” value in data set [4] (end of fifth week, oral with food, equal to 15 mg/kg of NSAIAs every day) is given as 5.1 ± 0.3 mmol/L. Further, in data set [5], the “Blood glucose, diabetic rats, Baseline” value is 17.1 ± 3 mmol/L and the “Blood glucose, diabetic rats, Average” value was found to be 8.1 ± 1 mmol/L. For the same molecule, in the data set with normal rats, the “Blood glucose, normal rats, Baseline” value is recorded as 7.1 ± 1 mmol/L.
As to `CC(=O)O.CCN(CC)CCOC(=O)c1ccccc1O` [P-10, diethylaminoethyl salicylate.AcOH], in data set [2], the “Triglycerides, Baseline” value is 6.6 ± 0.6 mmol/L and the “Triglycerides, Average” value turned out to be 2.9 ± 0.2 mmol/L. In data set [3], the “Blood glucose, type I diabetic mice, Baseline” value is given as 25.8 ± 3 mmol/L and the “Blood glucose, type I diabetic mice, Average” value turned out to be 8.2 ± 1 mmol/L. For the same molecule, in data set [5], the “Blood glucose, diabetic rats, Baseline” value amounted to 15.8 ± 3 mmol/L and the “Blood glucose, diabetic rats, Average” value stood at 8.2 ± 1 mmol/L. In the data set with normal rats, the “Blood glucose, normal rats, Baseline” value is given as 6.8 ± 1 mmol/L.
For the molecule `O=C(O)c1ccccc1O` [Salicylic acid], in data set [1] (rat, 4 h), the “Brain level of prodrug or metabolites” value is 30 ± 6 µg/g, the “Kidney level of prodrug or metabolites” value came to 45 ± 6 µg/g, the “Liver level of prodrug or metabolites” value stood at 30 ± 8 µg/g and the “Plasma level of prodrug or metabolites” value came to 80 ± 10 µg/mL.
Regarding `O=C(O)Cc1ccccc1Nc1c(Cl)cccc1Cl` [diclofenac], the “Drug found in rat tissues or plasma” value in data set [1] was “None of these drugs was found”. Moreover, in data set [1] (rat, 4 h), the “Brain level of prodrug or metabolite” value amounted to 40 ± 5 µg/g, the “Kidney level of prodrug or metabolite” value worked out at 48 ± 6 µg/g, the “Liver level of prodrug or metabolite” value worked out at 25 ± 8 µg/g and the “Plasma level of prodrug or metabolite” value was determined as 75 ± 8 µg/mL.
With `CC(C(=O)O)c1cccc(Oc2ccccc2)c1` (stereo not drawn) [fenoprofen], the “Drug found in rat tissues or plasma” value in data set [1] was “None of these drugs was found”. Also, in data set [1] (rat, 4 h), the “Brain level of prodrug or metabolite” value was 45 ± 5 µg/g, the “Kidney level of prodrug or metabolite” value stood at 48 ± 6 µg/g, the “Liver level of prodrug or metabolite” value was determined as 38 ± 8 µg/g and the “Plasma level of prodrug or metabolite” value was 80 ± 8 µg/mL.
`CC(C)Cc1ccc(C(C)C(=O)O)cc1` (stereo not drawn) [ibuprofen]: the “Drug found in rat tissues or plasma” value in data set [1] is “None of these drugs was found”. In addition, in data set [1] (rat, 4 h), the “Brain level of prodrug or metabolite” value stood at 35 ± 5 µg/g, the “Kidney level of prodrug or metabolite” value turned out to be 45 ± 6 µg/g, the “Liver level of prodrug or metabolite” value was found to be 35 ± 8 µg/g and the “Plasma level of prodrug or metabolite” value was determined as 70 ± 8 µg/mL.
